Source: patent publication US20210236442A1, “METHODS FOR DELAYING OCCURRENCE OF NEW-ONSET TYPE 2 DIABETES AND FOR SLOWING PROGRESSION OF AND TREATING TYPE 2 DIABETES” (Dalcor Pharma UK Ltd., Leatherhead, Zug Branch, priority 2018, published 2021)

Assays:
Assay type in all cases: in vivo, human
[1] = test system: patients of the dal-OUTCOMES trial; assay: Cox proportional hazards regression of dalcetrapib treatment arm for association with new onset diabetes
Procedure: The effect of dalcetrapib on whole-blood HbA1c levels irrespective of genotype and the impact of dalcetrapib on risk of new onset diabetes were retrospectively assessed in patients of the dal-OUTCOMES trial. The descriptive statistics and analyses were performed using SAS 9.4 software. Diabetes at baseline was defined based on at least one of the following patient criteria: (1) diagnosis of diabetics at baseline in the dal-OUTCOMES trial; (2) whole-blood HbA1c level>=6.5% at baseline; (3) fasting glucose level>=7.0 mmol/L at baseline; and (4) use of diabetes medication at or before baseline. New onset diabetes was defined in non-diabetic patients at baseline based on at least one of the following patient criteria: (1) adverse event (AE) preferred terms “type 2 diabetes mellitus” OR “diabetes mellitus” from the AE file that occurred after randomization; (2) use of diabetes medication that was initiated after randomization; (2) at least one whole-blood HbA1c measurement of >=6.5% after randomization; and (4) at least one fasting glucose measurement of >=126 mg/dl or >=7.0 mmol/L after randomization. Cox proportional hazards regression of dalcetrapib treatment arm for association with new onset diabetes was assessed. There were 598 (14%) new onset diabetes cases in the 4173 non-diabetics at baseline.

[2] = test system: uncontrolled diabetic patients of the dal-OUTCOMES trial; assay: Effect of dalcetrapib on whole-blood HbA1c in uncontrolled diabetics
Procedure: The effect of dalcetrapib in uncontrolled diabetics defined once as HbA1c>7% at baseline or once as >7.5% at baseline was retrospectively assessed in patients of the dal-OUTCOMES trial. The descriptive statistics and analyses were performed using SAS 9.4 software. Two populations of uncontrolled diabetics at baseline were defined: patients having a whole-blood HbA1c level of >7 (n=437) and patients having a whole-blood HbA1c level of >7.5 (n=280).

[3] = test system: patients enrolled in the dal-OUTCOMES trial; assay: Repeated measures mixed model regression of treatment arm for fasting plasma glucose and whole-blood HbA1c per genotype and diabetes status; settings: all rs1967309 genotypes, diabetic and non-diabetic, with and without age and sex; except AG diabetic patients
From the text: The effect of ADCY9 rs1967309 genotypes on patient HbA1C and glucose levels was retrospectively assessed in patients enrolled in the dal-OUTCOMES trial.
Inclusion Criteria: Patients 45 years of age or older who provided written informed consent were eligible to participate if they had been hospitalized for an acute coronary syndrome characterized by elevated cardiac biomarkers, with symptoms of acute myocardial ischemia, ischemic electrocardiographic abnormalities that were new or presumed to be new, or loss of viable myocardium on imaging. Patients without elevated cardiac biomarkers were eligible to participate if symptoms of acute myocardial ischemia were accompanied by electrocardiographic changes that were new or presumed to be new and by additional evidence of obstructive coronary disease. […] However, no specific statin agent or dose was specified, and patients were not excluded if their LDL cholesterol level remained above 100 mg per deciliter. There were no exclusions on the basis of patients' HDL cholesterol level. […] The patients began a single-blind placebo-based run-in period of approximately 4 to 6 weeks to allow for patients to stabilize and for completion of any planned revascularization procedures. […]

[4] = test system: patients of the dal-OUTCOMES trial; assay: Repeated measures mixed regression of treatment arm for HbA1c, all patients and per genotype (Example 2); settings: all patients combined and each rs1967309 genotype; with and without covariates
Procedure: The effect of dalcetrapib on whole-blood HbA1c levels irrespective of genotype and the impact of dalcetrapib on risk of new onset diabetes were retrospectively assessed in patients of the dal-OUTCOMES trial. The descriptive statistics and analyses were performed using SAS 9.4 software.

CCC(CC)CC1(C(=O)Nc2ccccc2SC(=O)C(C)C)CCCCC1 [dalcetrapib]
effect of dalcetrapib on new onset diabetes ([1]; non-diabetic patients at baseline): trend for a protective effect | association of new onset diabetes with dalcetrapib treatment arm ([1]; non-diabetic patients at baseline, all combined and each genotype, P<0.05, with and without covariates): not found to be significantly associated | association with treatment arm ([1]; patients with diabetes at baseline and AA genotype, with and without covariates, patients with events n=27): significant association with treatment arm | association of treatment arm (dalcetrapib versus placebo) with whole-blood HbA1c at M06 ([2]; HbA1c >7 at baseline, genotype rs1967309/AA, without adjustment for covariates, significance level 5%): associated with a decrease in whole-blood HbA1c | repeated measures analysis, natural logarithm of HbA1C at 6, 12 and 24 months ([2]; uncontrolled diabetic patients, mixed regression models): confirmed by repeated measures analysis | mean ln(HbA1c) in the dalcetrapib treatment arm ([2]; uncontrolled diabetics, versus placebo arm): lower than in the placebo arm | significance of dalcetrapib treatment arm for outcome HbA1c [3]: significant | dalcetrapib treatment arm as predictor of HbA1c [4]: significant predictor of reduced HbA1c
